This passage reports EC50 results from patent publication US9840512B2, “Antidiabetic bicyclic compounds” (Merck Sharp & Dohme Corp., priority 2013, dated 2017).

For test [1], the target named is T1, human GPR40 (Homo sapiens, UniProt O14842). Briefly: Inositol Phosphate Turnover (IP1) Assay 1. To be noted: Human IP1 Assay 1, EC50, nM, HEK cells stably expressing human GPR40.
The target of test [2] is T1, human GPR40. As to the kind of experiment: FLIPR assay (agonist-induced calcium mobilization). To be noted: Human FLIPR EC50, nM or % activation (EC50 values), GPR40/CHO NFAT BLA cells. Background: Calcium assays in cells follow changes in intracellular calcium, usually with a dye or a luminescent sensor.

T1 sequence (O14842 whole entry): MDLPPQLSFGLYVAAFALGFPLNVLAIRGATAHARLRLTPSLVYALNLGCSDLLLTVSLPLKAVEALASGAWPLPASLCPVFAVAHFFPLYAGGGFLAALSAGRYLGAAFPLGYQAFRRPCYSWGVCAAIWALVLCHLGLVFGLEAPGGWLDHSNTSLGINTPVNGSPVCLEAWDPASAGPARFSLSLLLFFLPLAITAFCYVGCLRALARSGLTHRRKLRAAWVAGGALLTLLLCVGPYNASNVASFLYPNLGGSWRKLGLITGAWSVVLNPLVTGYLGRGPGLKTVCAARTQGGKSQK

`CC#CC(CC(=O)O)c1ccc2c(c1)CCC(c1nc(-c3ccc(OC)nc3C)ccc1F)O2` (mixture of isomers) [Example 19]: the concentration for a half-maximal effect (EC50) (in general, the midpoint of the concentration-response curve) at human GPR40 [1] was determined as 4500 nM; at human GPR40 [2], 106 nM.
`CC#CC(CC(=O)O)c1ccc2c(c1)CCC(c1cccc(-c3c(C)noc3C)c1)O2` (mixture of isomers) [Example 22]: the concentration giving a half-maximal response (EC50) at human GPR40 [1] stood at 638 nM; at human GPR40 [2] it was 151 nM.
In the same order, the values of `CC#CC(CC(=O)O)c1ccc2c(c1)CCC(c1cccc(Oc3ccc(C#N)cc3)c1)O2` (mixture of isomers) [Example 23] are 116 nM and 40 nM.
Taken in the same sequence, the figures for `CC#CC(CC(=O)O)c1ccc2c(c1)CCC(c1cc(-c3ccc(OC)nc3C)ccc1F)O2` (mixture of isomers) [Example 24] were 58 nM and 57 nM.
`CC#CC(CC(=O)O)c1ccc2c(c1)CCC(c1cccc(-c3ccccc3C(F)(F)F)c1)O2` (mixture of isomers) [Example 27]: the results for the EC50 at human GPR40 [1] and at human GPR40 [2] were 726 nM and 52 nM, respectively.
Taken in the same sequence, the figures for `CC#CC(CC(=O)O)c1ccc2c(c1)CCC(c1cc(Br)ccc1F)O2` (mixture of isomers) [Example 28] were 536 nM and 115 nM.
Taken in the same sequence, the figures for `CC#C[C@@H](CC(=O)O)c1ccc2c(c1)CCC(c1cc(-c3cccnc3C(F)(F)F)ccc1F)O2` (mixture of isomers) [Example 31] were 60 nM and 95 nM.
On to `CC#C[C@@H](CC(=O)O)c1ccc2c(c1)CCC(c1cccc(-c3cccc4c3c(C(F)(F)F)nn4C)c1)O2` (mixture of isomers) [Example 32], for which the EC50 on human GPR40 [1] was determined as 149 nM; on human GPR40 [2] it was 57 nM.
`CC#C[C@@H](CC(=O)O)c1ccc2c(c1)CCC(c1cc(C3=CCCC3(C)C)ccc1F)O2` (mixture of isomers) [Example 33]: the figures for the concentration giving a half-maximal response (EC50) on human GPR40 [1] and on human GPR40 [2] were 1300 nM and 114 nM, respectively.
In the same order, the values of `CC(C)=CC(CC(=O)O)c1ccc2c(c1)CCC(c1cccc(-c3c(C)cccc3C)c1)O2` (mixture of isomers) [Example 44] are 6060 nM and 69 nM.
In the same order, the values of `CC#C[C@@H](CC(=O)O)c1ccc2c(c1)CCC(c1ccc(OCc3ccccc3)cc1)O2` (mixture of isomers) [Example 50] are 877 nM and 9 nM.
Taken in the same sequence, the figures for `CC#C[C@@H](CC(=O)O)c1ccc2c(c1)CCC(c1ccc(-c3cc(OC)ccc3F)cc1)O2` (mixture of isomers) [Example 51] were 1200 nM and 105 nM.
In the case of `CC#C[C@@H](CC(=O)O)c1ccc2c(c1)CCC(c1ccc(OCc3ccccc3)c(-c3c(C)cccc3C)c1)O2` (mixture of isomers) [Example 52], the EC50 on human GPR40 [1] was found to be 248 nM; at human GPR40 [2] it was 17 nM.
Regarding `Cc1ccccc1-c1cc(F)c(C2CCc3cc4c(cc3O2)OC[C@H]4CC(=O)O)cc1-c1ccccc1C` (mixture of isomers) [Example 59], the half-maximal effective concentration (EC50) at human GPR40 [1] was determined as 2520 nM; on human GPR40 [2], 51 nM.
`Cc1cccc(C)c1-c1ccc(F)c(C2CCc3cc(CCC(=O)O)ccc3O2)n1` (racemic) [Example 3]: the half-maximal effective concentration (EC50) on human GPR40 [1] was determined as 3630 nM; on human GPR40 [2], 292 nM.
As for `Cc1cc(OCCS(C)(=O)=O)cc(C)c1-c1cccc(C2CCc3cc(CCC(=O)O)ccc3O2)c1` (racemic) [Example 6], the concentration giving a half-maximal response (EC50) on human GPR40 [1] was 1700 nM; at human GPR40 [2], 185 nM.
Turning to `COc1ccc(F)c(-c2ccc(C3CCc4ccc(CCC(=O)O)cc4O3)cc2C2=CCCC2(C)C)c1` (racemic) [Example 48], the half-maximal effective concentration (EC50) on human GPR40 [1] is 1020 nM; on human GPR40 [2], 12 nM.
`Cc1cccc(C)c1-c1cccc(C2CCc3cc(CCC(=O)O)ccc3O2)c1` (single isomer, unassigned) [Example 4]: the values for the EC50 at human GPR40 [1] and on human GPR40 [2] were 544 nM and 38 nM, respectively.
Turning to `Cc1cccc(C)c1-c1cccc(C2CCc3cc(CCC(=O)O)ccc3O2)c1` (single isomer, unassigned) [Example 5], the results for the EC50 on human GPR40 [1] and on human GPR40 [2] were 1670 nM and 85 nM, respectively.
Turning to `CC#C[C@@H](CC(=O)O)c1ccc2c(c1)CCC(c1cc(-c3c(C)cccc3C)ccc1F)O2` (single isomer, unassigned) [Example 21], the concentration giving a half-maximal response (EC50) at human GPR40 [1] was determined as 83 nM; at human GPR40 [2], 26 nM.
In the same order, the values of `CC#C[C@@H](CC(=O)O)c1ccc2c(c1)CCC(c1cc(-c3cccnc3C(F)(F)F)ccc1F)O2` (single isomer, unassigned) [Example 35] are 31 nM and 37 nM.
In the same order, the values of `CC#C[C@@H](CC(=O)O)c1ccc2c(c1)CCC(c1cc(-c3ccc(OC)nc3C)ccc1F)O2` (single isomer, unassigned) [Example 37] are 47 nM and 38 nM.
Taken in the same sequence, the figures for `CC#C[C@@H](CC(=O)O)c1ccc2c(c1)CCC(c1cc(-c3ccc(OC)nc3C)ccc1F)O2` (single isomer, unassigned) [Example 38] were 1690 nM and 83 nM.
`CC#C[C@@H](CC(=O)O)c1ccc2c(c1)CCC(c1cccc(-c3cccc4c3c(C(F)(F)F)nn4C)c1)O2` (single isomer, unassigned) [Example 41]: the EC50 on human GPR40 [1] amounted to 175 nM; at human GPR40 [2], 64 nM.
Taken in the same sequence, the figures for `CC#C[C@@H](CC(=O)O)c1ccc2c(c1)CCC(c1cccc(-c3cccc4c3c(C(F)(F)F)nn4C)c1)O2` (single isomer, unassigned) [Example 42] were 1220 nM and 74 nM.
In the same order, the values of `Cc1cccc(C)c1-c1cccc(C2CCc3cc(CCC(=O)O)ccc3O2)c1` (stereo not drawn) [Example 1, 3-(2-(2′,6′-dimethyl-[1,1′-biphenyl]-3-yl)chroman-6-yl)propanoic acid] are 1210 nM and 102 nM.
In the same order, the values of `Cc1ccccc1-c1ccc(F)c(C2CCc3cc4c(cc3O2)OC[C@H]4CC(=O)O)c1` (stereo partly drawn) [Example 56] are 1910 nM and 117 nM.
